Data reported in paper PMC5437225, “Picomolar, selective, and subtype-specific small-molecule inhibition of TRPC1/4/5 channels” (The Journal of Biological Chemistry, 2017).

Experiments:
TRPC5 = biological target: T1, TRPC5 (Homo sapiens, UniProt Q9UL62); test: fura-2 Ca2+ entry, FlexStation 96-well; type: cell-based; settings: activated by 10 nM (-)-englerin A; pH 7.4; room temperature; 30 min preincubation; read-out: C31 IC50
T1 construct: homomer
T1 sequence (Q9UL62 1-973): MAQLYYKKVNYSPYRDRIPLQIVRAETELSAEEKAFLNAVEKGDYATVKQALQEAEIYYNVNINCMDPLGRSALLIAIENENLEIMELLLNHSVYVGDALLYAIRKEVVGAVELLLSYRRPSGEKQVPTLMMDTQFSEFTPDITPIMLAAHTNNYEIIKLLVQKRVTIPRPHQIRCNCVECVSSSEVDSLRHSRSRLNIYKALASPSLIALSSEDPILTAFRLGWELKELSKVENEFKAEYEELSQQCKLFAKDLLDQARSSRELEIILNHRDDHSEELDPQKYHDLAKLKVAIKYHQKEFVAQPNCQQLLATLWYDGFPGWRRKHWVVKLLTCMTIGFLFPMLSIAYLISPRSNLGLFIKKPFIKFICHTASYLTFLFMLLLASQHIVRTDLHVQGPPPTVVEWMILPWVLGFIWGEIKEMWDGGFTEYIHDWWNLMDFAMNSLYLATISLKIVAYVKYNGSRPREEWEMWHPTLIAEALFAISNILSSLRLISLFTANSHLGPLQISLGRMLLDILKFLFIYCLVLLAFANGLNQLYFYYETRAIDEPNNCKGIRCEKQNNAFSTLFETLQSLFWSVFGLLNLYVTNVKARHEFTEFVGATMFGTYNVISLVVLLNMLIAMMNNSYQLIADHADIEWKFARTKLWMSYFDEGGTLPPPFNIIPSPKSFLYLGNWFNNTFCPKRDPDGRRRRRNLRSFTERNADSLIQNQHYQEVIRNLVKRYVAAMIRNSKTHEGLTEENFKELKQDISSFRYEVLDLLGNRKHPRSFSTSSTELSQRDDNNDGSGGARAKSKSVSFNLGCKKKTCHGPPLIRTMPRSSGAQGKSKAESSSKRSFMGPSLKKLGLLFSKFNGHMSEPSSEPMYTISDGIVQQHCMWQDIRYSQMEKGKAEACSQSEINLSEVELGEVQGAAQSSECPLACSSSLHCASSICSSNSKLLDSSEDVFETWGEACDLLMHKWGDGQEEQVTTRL
Excerpt: fura-2 Ca2+ entry, FlexStation 96-well on TRPC5

TRPC5-TRPC1 concatemer = biological target: T2, TRPC5-TRPC1 concatemer (Homo sapiens, UniProt P48995+Q9UL62); test: fura-2 Ca2+ entry, FlexStation 96-well; type: cell-based; settings: read-out: C31 IC50
T2 construct: concatemer of TRPC5 with TRPC1
T2 sequence (P48995 whole entry, one chain of several): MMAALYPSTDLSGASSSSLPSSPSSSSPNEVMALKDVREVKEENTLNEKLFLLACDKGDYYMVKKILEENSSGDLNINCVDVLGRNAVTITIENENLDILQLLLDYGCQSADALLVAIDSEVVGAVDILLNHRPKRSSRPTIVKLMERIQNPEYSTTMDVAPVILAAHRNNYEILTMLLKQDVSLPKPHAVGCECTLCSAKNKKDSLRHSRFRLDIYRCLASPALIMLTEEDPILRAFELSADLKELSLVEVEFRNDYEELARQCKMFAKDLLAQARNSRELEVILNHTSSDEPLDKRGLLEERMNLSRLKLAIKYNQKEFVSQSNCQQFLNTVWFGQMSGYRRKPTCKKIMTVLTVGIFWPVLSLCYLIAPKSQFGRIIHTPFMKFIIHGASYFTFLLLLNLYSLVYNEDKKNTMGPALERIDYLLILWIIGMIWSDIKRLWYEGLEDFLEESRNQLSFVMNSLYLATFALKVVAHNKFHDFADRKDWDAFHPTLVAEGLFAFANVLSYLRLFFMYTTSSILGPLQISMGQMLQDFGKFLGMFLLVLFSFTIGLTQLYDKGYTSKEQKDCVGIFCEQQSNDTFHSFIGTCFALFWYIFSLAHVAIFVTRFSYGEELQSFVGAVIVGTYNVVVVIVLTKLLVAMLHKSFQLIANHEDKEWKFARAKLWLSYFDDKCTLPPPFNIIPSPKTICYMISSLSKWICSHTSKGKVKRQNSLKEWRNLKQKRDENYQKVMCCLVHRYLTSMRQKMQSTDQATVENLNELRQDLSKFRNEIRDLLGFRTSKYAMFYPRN
Excerpt: fura-2 Ca2+ entry, FlexStation 96-well on TRPC5-TRPC1 concatemer

IC50 (TRPC5): 1.3 nM | IC50 (TRPC5-TRPC1 concatemer): 0.199 nM
Structure (SMILES): Cn1c(=O)n(CCCO)c(=O)c2c1nc(Oc1cccc(OC(F)(F)F)c1)n2Cc1ccc(Cl)cc1 [compound 31, C31]
